Target: Recombinant human Mat2a (Homo sapiens (Human), UniProt P31153)
Assay: Determination of Mat2A activity (384 well absorbance-based assay, Biomol Green)
Assay type: biochemical
Conditions: 12.5 nM Mat2A, 100 μM ATP and Methionine, 2% DMSO, 120 minutes at RT, absorbance at 635 nm; read-out: MAT2A_LEC IC50 (uM) (Num)
Description: Determination of Mat2A Activity
Measurement of Mat2A inhibition is performed in 384 well format absorbance-based assay. Recombinant human Mat2a (12.5 nM) and serial diluted compounds in DMSO (range of concentrations from 10 μM to 508 pM) or controls (DMSO) are incubated for 15 minutes at room temperature (RT) in assay buffer containing 50 mM HEPES pH 7.5, 50 mM KCl, 50 mM MgCl2, 0.01%Tween 20 and 10 mM DTT. The reaction is initiated by the addition of the combined substrates ATP and Methionine, each at a final concentration of 100 μM. Final assay condition are 12.5 nM Mat2A, 100 μM ATP and Methionine Substrates and 2% DMSO. After 120 minutes of incubation at RT, the reaction is stopped by the addition of Biomol Green. The absorbance signal is measured at λ=635 nm with a multiplate reader (BMG Pherastar reader or equivalent) after 30 min of equilibration at RT.

Chain of Recombinant human Mat2a (P31153 whole entry): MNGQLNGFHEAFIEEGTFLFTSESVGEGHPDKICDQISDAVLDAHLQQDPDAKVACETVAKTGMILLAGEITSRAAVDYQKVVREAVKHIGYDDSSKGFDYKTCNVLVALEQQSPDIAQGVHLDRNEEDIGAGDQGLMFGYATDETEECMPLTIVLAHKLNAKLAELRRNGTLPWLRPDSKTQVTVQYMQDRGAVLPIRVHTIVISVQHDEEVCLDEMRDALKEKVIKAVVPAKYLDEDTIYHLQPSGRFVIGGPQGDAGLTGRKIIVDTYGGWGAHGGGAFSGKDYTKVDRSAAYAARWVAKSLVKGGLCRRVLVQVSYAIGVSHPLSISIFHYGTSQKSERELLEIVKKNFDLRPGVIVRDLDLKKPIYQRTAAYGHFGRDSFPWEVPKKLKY

| IC50 [µM] | Compound |
| --- | --- |
| 0.29 | Cc1cc(-c2nccc3[nH]nc(S(C)(=O)=O)c23)ccc1S(C)(=O)=O [Example 60, 4-(3-methyl-4-(methylsulfonyl)phenyl)-3-(methylsulfonyl)-1H-pyrazolo[4,3-c]pyridine] |
| 0.13 | CCOc1n[nH]c2ccnc(-c3ccc(S(C)(=O)=O)c(C)c3)c12 [Example 66, 3-ethoxy-4-(3-methyl-4-methylsulfonyl-phenyl)-1H-pyrazolo[4,3-c]pyridine] |
| 0.03 | CNS(=O)(=O)c1ccc2[nH]nc(C3CC3)c2c1-c1ccc(S(C)(=O)=O)c(C)c1 [Example 115, 3-cyclopropyl-N-methyl-4-(3-methyl-4-methylsulfonyl-phenyl)-1H-indazole-5-sulfonamide] |
| 0.02 | Cc1cc(-c2c(S(C)(=O)=O)ccc3[nH]nc(OC(F)F)c23)c(F)cc1S(C)(=O)=O [Example 119, 3-(difluoromethoxy)-4-(2-fluoro-5-methyl-4-methylsulfonyl-phenyl)-5-methylsulfonyl-1H-indazole] |
| < 0.013 | Cc1cc(-c2nccc3[nH]nc(OC(F)(F)F)c23)ccc1S(C)(=O)=O [Example 71, 4-(3-methyl-4-(methylsulfonyl)phenyl)-3-(trifluoromethoxy)-1H-pyrazolo[4,3-c]pyridine] |
| 0.015 | CNC(=O)c1ncc2[nH]nc(OC(F)F)c2c1-c1ccc(S(=O)(=O)C(F)F)c(C)c1 [Example 108] |
| < 0.013 | Cc1cc(-n2c(=O)ccc3[nH]nc(OC(F)F)c32)ccc1S(C)(=O)=O [Example 78, 3-(difluoromethoxy)-4-(3-methyl-4-methylsulfonyl-phenyl)-1H-pyrazolo[4,3-b]pyridin-5-one] |
| 0.2 | Cc1cc(-c2ncc(O)c3[nH]nc(C4CC4)c23)ccc1S(C)(=O)=O [Example 64, 3-cyclopropyl-4-(3-methyl-4-methylsulfonyl-phenyl)-1H-pyrazolo[4,3-c]pyridin-7-ol] |
| < 0.013 | Cc1cc(-c2c(C#N)c(Cl)cc3[nH]nc(C4CC4)c23)ccc1S(C)(=O)=O [Example 90, 6-chloro-3-cyclopropyl-4-(3-methyl-4-methylsulfonylphenyl)-1H-indazole-5-carbonitrile] |
| 0.013 | Cc1cc(-c2c(C(=O)NC3COC3)ncc3[nH]nc(OC(F)F)c23)ccc1S(=O)(=O)C(F)F [Example 107, 3-(difluoromethoxy)-4-[4-(difluoromethylsulfonyl)-3-methyl-phenyl]-N-(oxetan-3-yl)-1H-pyrazolo[3,4-c]pyridine-5-carboxamide] |
| 0.03 | CC(=O)NCCCNc1cnc(-c2ccc(S(C)(=O)=O)c(C)c2)c2c(C3CC3)n[nH]c12 [Example 100, N-[3-[[3-cyclopropyl-4-(3-methyl-4-methylsulfonyl-phenyl)-1H-pyrazolo[4,3-c]pyridin-7-yl]amino]propyl]acetamide] |
| < 0.013 | Cc1cc(-n2c(=O)ccc3[nH]nc(OC(F)(F)F)c32)ccc1S(C)(=O)=O [Example 91, 4-(3-methyl-4-methylsulfonyl-phenyl)-3-(trifluoromethoxy)-1H-pyrazolo[4,3-b]pyridin-5-one] |
| 0.14 | Cc1cc(-c2ncc(NCCOCCN)c3[nH]nc(C4CC4)c23)ccc1S(C)(=O)=O [Example 101, N-[2-(2-aminoethoxy)ethyl]-3-cyclopropyl-4-(3-methyl-4-methylsulfonyl-phenyl)-1H-pyrazolo[4,3-c]pyridin-7-amine] |
| < 0.013 | Cc1cc(-c2c(C(=O)O)ncc3[nH]nc(C4CC4)c23)ccc1S(C)(=O)=O [Example 62, 3-cyclopropyl-4-(3-methyl-4-(methylsulfonyl)phenyl)-1H-pyrazolo[3,4-c]pyridine-5-carboxylic acid] |
| < 0.013 | Cc1cc(-c2c(C#N)ccc3[nH]nc(OC(F)F)c23)ccc1S(C)(=O)=O [Example 69, 3-(difluoromethoxy)-4-(3-methyl-4-(methylsulfonyl)phenyl)-1H-indazole-5-carbonitrile] |
| 0.025 | Cc1cc(-c2ncc(F)c3[nH]nc(C4CC4)c23)ccc1S(C)(=O)=O [Example 67, 3-cyclopropyl-7-fluoro-4-(3-methyl-4-methylsulfonyl-phenyl)-1H-pyrazolo[4,3-c]pyridine] |
| < 0.013 | Cc1cc(-c2nccc3[nH]nc(OC(F)F)c23)ccc1S(C)(=O)=O [Example 57, 3-(difluoromethoxy)-4-(3-methyl-4-(methylsulfonyl)phenyl)-1H-pyrazolo[4,3-c]pyridinepyridine] |
| < 0.013 | Cc1cc(-c2c(S(C)(=O)=O)ccc3[nH]nc(OC(F)(F)F)c23)ccc1S(C)(=O)=O [Example 93, 4-(3-methyl-4-(methylsulfonyl)phenyl)-5-(methylsulfonyl)-3-(trifluoromethoxy)-1H-indazole] |
| < 0.013 | Cc1cc(-c2c(S(C)(=O)=O)ccc3[nH]nc(OC(F)F)c23)ccc1S(=O)(=O)C1CC1 [Example 55, 4-(4-cyclopropylsulfonyl-3-methyl-phenyl)-3-(difluoromethoxy)-5-methylsulfonyl-1H-indazole] |
| 0.013 | CSc1ccc2[nH]nc(C3CC3)c2c1-c1ccc(S(C)(=O)=O)c(C)c1 [Example 75, 3-cyclopropyl-4-(3-methyl-4-(methylsulfonyl)phenyl)-5-(methylthio)-1H-indazole] |
| < 0.013 | CNC(=O)c1c(F)cc2[nH]nc(C3CC3)c2c1-c1ccc(S(C)(=O)=O)c(C)c1 [Example 88, 3-cyclopropyl-6-fluoro-N-methyl-4-(3-methyl-4-(methylsulfonyl)phenyl)-1H-indazole-5-carboxamide] |

Second part, the molecule before the results:

| Compound | IC50 [µM] |
| --- | --- |
| O=S(=O)(c1ccc(-c2nccc3[nH]nc(C4CC4)c23)cc1Cl)C1CC1 [Example 8, 4-(3-chloro-4-(cyclopropylsulfonyl)phenyl)-3-cyclopropyl-1H-pyrazolo[4,3-c]pyridine] | 0.37 |
| Cc1cc(-c2c(C#N)ncc3[nH]nc(C4CC4)c23)ccc1S(=O)(=O)C(F)F [Example 50, 3-cyclopropyl-4-[4-(difluoromethylsulfonyl)-3-methyl-phenyl]-1H-pyrazolo[3,4-c]pyridine-5-carbonitrile] | < 0.013 |
| COc1ncc2[nH]nc(C(F)(F)F)c2c1-c1ccc(S(C)(=O)=O)c(C)c1 [Example 39, 5-methoxy-4-(3-methyl-4-(methylsulfonyl)phenyl)-3-(trifluoromethyl)-1H-pyrazolo[3,4-c]pyridine] | < 0.013 |
| CN(C)S(=O)(=O)c1ccc(-c2nccc3[nH]nc(C4CC4)c23)cc1Cl [Example 9, 2-chloro-4-(3-cyclopropyl-1H-pyrazolo[4,3-c]pyridin-4-yl)-N,N-dimethylbenzenesulfonamide] | 0.24 |
| Cc1cc(-c2nccc3[nH]nc(C4COC4)c23)ccc1S(C)(=O)=O [Example 28, 4-(3-methyl-4-methylsulfonyl-phenyl)-3-(oxetan-3-yl)-1H-pyrazolo[4,3-c]pyridine] | 0.51 |
| Cc1cc(-c2nccc3[nH]nc(C4CC4)c23)ccc1S(=O)(=O)C1COC1 [Example 15, 3-cyclopropyl-4-(3-methyl-4-(oxetan-3-ylsulfonyl)phenyl)-1H-pyrazolo[4,3-c]pyridine] | 0.27 |
| Cc1cc(-c2nccc3[nH]nc(OC(F)F)c23)ccc1S(=O)(=O)C1(C)CC1 [Example 37, 3-(difluoromethoxy)-4-[3-methyl-4-(1-methylcyclopropyl)sulfonyl-phenyl]-1H-pyrazolo[4,3-c]pyridine] | 0.1 |
| Cc1cc(-c2nccc3[nH]nc(OC(F)F)c23)ccc1S(=O)(=O)CC1CC1 [Example 29, 4-[4-(cyclopropylmethylsulfonyl)-3-methyl-phenyl]-3-(difluoromethoxy)-1H-pyrazolo[4,3-c]pyridine] | 0.29 |
| COCS(=O)(=O)c1ccc(-c2nccc3[nH]nc(OC(F)F)c23)cc1C [Example 38, 3-(difluoromethoxy)-4-[4-(methoxymethylsulfonyl)-3-methyl-phenyl]-1H-pyrazolo[4,3-c]pyridine] | 0.021 |
| Cc1cc(-c2nccc3[nH]nc(OC(F)F)c23)ccc1S(=O)(=O)C(F)F [Example 25, 3-(difluoromethoxy)-4-[4-(difluoromethylsulfonyl)-3-methyl-phenyl]-1H-pyrazolo[4,3-c]pyridine] | 0.013 |
| CCCS(=O)(=O)c1ccc(-c2nccc3[nH]nc(OC(F)F)c23)cc1C [Example 30] | 0.057 |
| CS(=O)(=O)c1ccc(-c2nccc3[nH]nc(C4CC4)c23)cc1C(F)F [Example 12, 3-cyclopropyl-4-(3-(difluoromethyl)-4-(methylsulfonyl)phenyl)-1H-pyrazolo[4,3-c]pyridine] | 0.22 |
| CS(=O)(=O)c1ccc(-c2nccc3[nH]nc(C4CC4)c23)cc1Cl [Example 3, 4-(3-chloro-4-(methylsulfonyl)phenyl)-3-cyclopropyl-1H-pyrazolo[4,3-c]pyridine] | 0.15 |
| Cc1cc(-c2c(C#N)ncc3[nH]nc(C4CC4)c23)c(F)cc1S(C)(=O)=O [Example 47, 3-cyclopropyl-4-(2-fluoro-5-methyl-4-methylsulfonyl-phenyl)-1H-pyrazolo[3,4-c]pyridine-5-carbonitrile] | 0.017 |
| CCS(=O)(=O)c1ccc(-c2nccc3[nH]nc(OC(F)F)c23)cc1C [Example 27, 3-(difluoromethoxy)-4-(4-ethylsulfonyl-3-methyl-phenyl)-1H-pyrazolo[4,3-c]pyridine] | < 0.013 |
| COc1ncc2[nH]nc(C(F)(F)F)c2c1-c1ccc(S(C)(=O)=O)c(C(F)F)c1 [Example 54, 4-[3-(difluoromethyl)-4-methylsulfonyl-phenyl]-5-methoxy-3-(trifluoromethyl)-1H-pyrazolo[3,4-c]pyridine] | 0.015 |

— patent US12565497B2 (Hoffmann-La Roche Inc., priority 2020, dated 2026)
